# Measured values published in article PMC7872314, “Modeling Bioavailable Concentrations in Zebrafish Cell Lines and Embryos Increases the Correlation of Toxicity Potencies across Test Systems” (Environmental Science & Technology, 2020).
# Read-outs that look alike come from different tables or passages of the source.
# Key:
# [1] = system: ZF4 and ZFL cell lines; test: Cytotoxicity assays, all endpoints, both cell lines (mean/range); assay type: cell-based, zebrafish (Danio rerio); details: 48 h
# [2] = system: ZFL (hepatocytes) cell line; test: cells; assay type: cell-based, zebrafish (Danio rerio); details: Danio rerio, Hepatocyte
# [3] = system: ZF4 (fibroblasts) cell line; test: BCA assay (MTS/BCA multiplex), protein amount; assay type: cell-based, zebrafish (Danio rerio); details: Danio rerio, Fibroblast
# [4] = ref Comptox, PubChem or DrugBank; cited from earlier work
# [5] = system: ZF4 (fibroblasts) cell line; test: ATP assay (ATP/LDH multiplex), ATP metabolism; assay type: cell-based, zebrafish (Danio rerio); details: Danio rerio, Fibroblast
# [6] = system: zebrafish embryos; test: animal or person; assay type: in vivo, zebrafish (Danio rerio)
# [7] = system: ZF4 (fibroblasts) cell line; test: MTS assay (MTS/BCA multiplex), NAD(P)H metabolism; assay type: cell-based, zebrafish (Danio rerio); details: Danio rerio, Fibroblast
# [8] = system: zebrafish embryos; design: method as in earlier work; details: nominal, cited from earlier work
# [9] = system: ZFL (hepatocytes) cell line; test: cells; assay type: cell-based, zebrafish (Danio rerio); details: Danio rerio, Hepatocyte; remark: listed apart in the source
# [10] = system: ZF4 (fibroblasts) cell line; test: Neutral red, fluorescence (NRf), AB/CFDA/NR multiplex, lysosome stability; assay type: cell-based, zebrafish (Danio rerio); details: Danio rerio, Fibroblast
# [11] = system: ZF4 (fibroblasts) cell line; test: CFDA endpoint of AB/CFDA/NR multiplex, membrane stability; assay type: cell-based, zebrafish (Danio rerio); details: Danio rerio, Fibroblast
# [12] = system: ZFL (hepatocytes) cell line; test: cells; assay type: cell-based, zebrafish (Danio rerio); details: Danio rerio, Hepatocyte; remark: listed apart in the source
# [13] = system: ZF4 (fibroblasts) cell line; test: Neutral red, absorbance (NRa), AB/CFDA/NR multiplex, lysosome stability; assay type: cell-based, zebrafish (Danio rerio); details: Danio rerio, Fibroblast
# [14] = system: ZFL (hepatocytes) cell line; test: cells; assay type: cell-based, zebrafish (Danio rerio); details: Danio rerio, Hepatocyte; remark: listed apart in the source
# [15] = system: ZF4 (fibroblasts) cell line; test: alamarBlue (AB) endpoint of AB/CFDA/NR multiplex, cellular respiration; assay type: cell-based, zebrafish (Danio rerio); details: Danio rerio, Fibroblast
# [16] = system: ZFL (hepatocytes) cell line; test: cells; assay type: cell-based, zebrafish (Danio rerio); details: Danio rerio, Hepatocyte; remark: listed apart in the source
# [17] = system: ZFL (hepatocytes) cell line; test: cells; assay type: cell-based, zebrafish (Danio rerio); details: Danio rerio, Hepatocyte; remark: listed apart in the source
# [18] = system: ZFL (hepatocytes) cell line; test: cells; assay type: cell-based, zebrafish (Danio rerio); details: Danio rerio, Hepatocyte; remark: listed apart in the source
compound,measurement,setting,value
"CCC(C)C1OC2(CCC1C)CC1CC(CC=C(C)C(OC3CC(OC)C(OC4CC(OC)C(O)C(C)O4)C(C)O3)C(C)C=CC=C3COC4C(O)C(C)=CC(C(=O)O1)C34O)O2 (stereo not drawn) [Ivermectin, ivermectin]",IC50,"[1]; Danio rerio, read-out: Mean log IC50nom, mean of all cytotoxicity endpoints (without LDH) in ZF4 and ZFL, 48 h, log10 (converted)",9.12 µM
same,Mean log IC50nom,"[1]; mean of all cytotoxicity endpoints (without LDH) in ZF4 and ZFL, log10, listed as Ive",-5.042 M
same,IC50,"[2]; BCA - ZFL, log10 of IC50, read-out: LogIC50 (converted)",7.08 µM
same,IC50,"[2]; BCA - ZFL, read-out: IC50",7.08 µM
same,IC50,"[2]; ZFL, 48 h exposure, nominal, log10, read-out: logIC50 (log10 IC50;nom) BCA (converted)",7.08 µM
same,IC50,"[2]; ZFL, 48 h exposure, nominal, read-out: IC50;nom BCA",7.08 µM
same,IC50,"[3]; BCA - ZF4, log10 of IC50, read-out: LogIC50 (converted)",16.2 µM
same,IC50,"[3]; BCA - ZF4, read-out: IC50",16.2 µM
same,IC50,"[3]; ZF4, 48 h exposure, nominal, log10, read-out: logIC50 (log10 IC50;nom) BCA (converted)",16.2 µM
same,IC50,"[3]; ZF4, 48 h exposure, nominal, read-out: IC50;nom BCA",16.2 µM
same,Physiological charge,[4],0
same,Water Solubility,[4],insoluble
same,logKow,[4],5.83
same,pKa (Strongest Acidic),[4],12.47
same,pKa (Strongest Basic),[4],-3.4
same,IC50,"[5]; ATP - ZF4, log10 of IC50, read-out: LogIC50 (converted)",15.4 µM
same,IC50,"[5]; ATP - ZF4, read-out: IC50",15.4 µM
same,IC50,"[5]; ZF4, 48 h exposure, nominal, log10, read-out: logIC50 (log10 IC50;nom) ATP (converted)",15.5 µM
same,IC50,"[5]; ZF4, 48 h exposure, nominal, read-out: IC50;nom ATP",15.4 µM
same,difference in toxicity (EC50;nom) between 48 hpf and 144 hpf,[6]; 48 hpf time point less sensitive than 144 hpf,marginally more toxic
same,log EC50;nom (mFET),"[6]; 48 hpf, nominal, log10, listed as Ive",-5.766 M
same,EC50,"[6]; Danio rerio, 48 hpf, nominal, log10, read-out: log EC50;nom (mFET) (converted)",1.7 µM
same,EC50,"[6]; Danio rerio, 48 hpf, nominal, read-out: EC50;nom (embryo)",1.5 µg/mL
same,EC50,"[6]; Danio rerio, read-out: EC50 48hpf",1.71 µM
same,EC50,"[6]; Danio rerio, read-out: EC50;nom (mFET)",1.71 µM
same,EC50,"[6]; zebrafish, in vivo, listed as Ive, read-out: EC50;nom (mFET)",1.71 µM
same,IC50,"[7]; MTS - ZF4, log10 of IC50, read-out: LogIC50 (converted)",13.6 µM
same,IC50,"[7]; MTS - ZF4, read-out: IC50",13.6 µM
same,IC50,"[7]; ZF4, 48 h exposure, nominal, log10, read-out: logIC50 (log10 IC50;nom) MTS (converted)",13.5 µM
same,IC50,"[7]; ZF4, 48 h exposure, nominal, read-out: IC50;nom MTS",13.6 µM
same,EC50,"[8]; 144 hpf, converted, listed as Ive",0.503 µM
same,logEC50 144 hpf,[8]; log10,-6.299 M
same,IC50,"[9]; CFDA - ZFL, log10 of IC50, read-out: LogIC50 (converted)",14.1 µM
same,IC50,"[9]; CFDA - ZFL, read-out: IC50",14.1 µM
same,IC50,"[9]; ZFL, 48 h exposure, nominal, log10, read-out: logIC50 (log10 IC50;nom) CFDA (converted)",14.1 µM
same,IC50,"[9]; ZFL, 48 h exposure, nominal, read-out: IC50;nom CFDA",14.1 µM
same,IC50,"[10]; NR-fluo - ZF4, log10 of IC50, read-out: LogIC50 (converted)",18.1 µM
same,IC50,"[10]; NR-fluo - ZF4, read-out: IC50",18.1 µM
same,IC50,"[10]; ZF4, 48 h exposure, nominal, log10, read-out: logIC50 (log10 IC50;nom) NRf (converted)",18.2 µM
same,IC50,"[10]; ZF4, 48 h exposure, nominal, read-out: IC50;nom NRf",18.1 µM
same,IC50,"[11]; CFDA - ZF4, log10 of IC50, read-out: LogIC50 (converted)",18.2 µM
same,IC50,"[11]; CFDA - ZF4, read-out: IC50",18.2 µM
same,IC50,"[11]; ZF4, 48 h exposure, nominal, log10, read-out: logIC50 (log10 IC50;nom) CFDA (converted)",18.2 µM
same,IC50,"[11]; ZF4, 48 h exposure, nominal, read-out: IC50;nom CFDA",18.2 µM
same,IC50,"[12]; AB - ZFL, log10 of IC50, read-out: LogIC50 (converted)",6.58 µM
same,IC50,"[12]; AB - ZFL, read-out: IC50",6.58 µM
same,IC50,"[12]; ZFL, 48 h exposure, nominal, log10, read-out: logIC50 (log10 IC50;nom) AB (converted)",6.61 µM
same,IC50,"[12]; ZFL, 48 h exposure, nominal, read-out: IC50;nom AB",6.58 µM
same,IC50,"[13]; NR-abs - ZF4, log10 of IC50, read-out: LogIC50 (converted)",15.4 µM
same,IC50,"[13]; NR-abs - ZF4, read-out: IC50",15.4 µM
same,IC50,"[13]; ZF4, 48 h exposure, nominal, log10, read-out: logIC50 (log10 IC50;nom) NRa (converted)",15.5 µM
same,IC50,"[13]; ZF4, 48 h exposure, nominal, read-out: IC50;nom NRa",15.4 µM
same,IC50,"[14]; MTS - ZFL, log10 of IC50, read-out: LogIC50 (converted)",10.2 µM
same,IC50,"[14]; MTS - ZFL, read-out: IC50",10.2 µM
same,IC50,"[14]; ZFL, 48 h exposure, nominal, log10, read-out: logIC50 (log10 IC50;nom) MTS (converted)",10.2 µM
same,IC50,"[14]; ZFL, 48 h exposure, nominal, read-out: IC50;nom MTS",10.2 µM
same,IC50,"[15]; AB - ZF4, log10 of IC50, read-out: LogIC50 (converted)",10.2 µM
same,IC50,"[15]; AB - ZF4, read-out: IC50",10.2 µM
same,IC50,"[15]; ZF4, 48 h exposure, nominal, log10, read-out: logIC50 (log10 IC50;nom) AB (converted)",10.2 µM
same,IC50,"[15]; ZF4, 48 h exposure, nominal, read-out: IC50;nom AB",10.2 µM
same,IC50,"[16]; ATP - ZFL, log10 of IC50, read-out: LogIC50 (converted)",2.61 µM
same,IC50,"[16]; ATP - ZFL, read-out: IC50",2.61 µM
same,IC50,"[16]; ZFL, 48 h exposure, nominal, log10, read-out: logIC50 (log10 IC50;nom) ATP (converted)",2.63 µM
same,IC50,"[16]; ZFL, 48 h exposure, nominal, read-out: IC50;nom ATP",2.61 µM
same,IC50,"[17]; NR-abs - ZFL, log10 of IC50, read-out: LogIC50 (converted)",2.55 µM
same,IC50,"[17]; NR-abs - ZFL, read-out: IC50",2.55 µM
same,IC50,"[17]; ZFL, 48 h exposure, nominal, log10, read-out: logIC50 (log10 IC50;nom) NRa (converted)",2.57 µM
same,IC50,"[17]; ZFL, 48 h exposure, nominal, read-out: IC50;nom NRa",2.55 µM
same,IC50,"[18]; NR-fluo - ZFL, log10 of IC50, read-out: LogIC50 (converted)",3.34 µM
same,IC50,"[18]; NR-fluo - ZFL, read-out: IC50",3.34 µM
same,IC50,"[18]; ZFL, 48 h exposure, nominal, log10, read-out: logIC50 (log10 IC50;nom) NRf (converted)",3.31 µM
same,IC50,"[18]; ZFL, 48 h exposure, nominal, read-out: IC50;nom NRf",3.34 µM
